The values below come from patent US6015820A, “4-Aryl-thio-pyridin-2(1H)-ones, medicines containing them and their uses in the treatment of illnesses linked to HIV” (priority 1995, dated 2000).

Some results are limits rather than exact numbers.

In general, CC50 refers to the concentration giving 50% cytotoxicity.

The nature of series [1]: cytotoxicity on MT4 cells. The format is cell-based. Conditions: human, Table 4, line HIV-1 IIIB/MT4. On the procedure:
(§1) In parallel experiments, the cytotoxicity of the molecules was measured on non-infected cells, after an incubation of 5 days in the presence of these molecules, by using a […] titration (MTT test) based on the ability of the mitochondrial dehydrogenases of the living cells to reduce 3-(4,5-dimethylthiazol-2-yl)-2,5-diphenyltetrazolium bromide in formazan (Mosmann et al. J. Immunol. Methods ([…]), 65, 55-63). The concentration cytotoxic at 50% (CC50) is the concentration at which the DO540 has been reduced to half and is calculated by using the program mentioned above.

Series [2] has as its target IT of HIV-2 (Human immunodeficiency virus type 2 (ISOLATE ROD), UniProt P04584). Description: inhibition of the inverse transcriptase of HIV-2. The format is biochemical. To be noted: at concentrations at which the IT of HIV-1 was well inhibited (FIG. 9). On the procedure: The system for the expression of the IT of HIV-2 in E.coli (B. Muller et al. (1991 J. Biol. Chem. 266, 14708-14713) was provided by Dr. R. Goody. The IT of the HIV-2 was purified in the same way as the IT of the HIV-1.
Incubation was carried out at 37° C. for 10 minutes in the presence of various matrix-primers.
a) Poly C-oligo dG: the reaction mixture contained a final volume of 0.05 ml, Tris-HCl 50 mM pH 8.0, MgCl2 5 mM, dithiothreitol 4 mM, 0.48 A260 /ml of poly C-oligo dG (5:1), 1.0 μCi of [^3 H]dGTP (28 Ci/mmole), dGTP 2 μM, KCl 80 mM, 1 μg of bovine serum albumin and IT 20-50 nM.
b) Poly A-oligo dT: the same conditions as in a), except that 0.48 A260 /ml of poly A-oligo dT (5:1), 0.5 μCi of [^3 H]dTTP (46 Ci/mmole), dTTP 20 μM were used.
The reactions were stopped by adding in the cold 1 ml of 10% trichloroacetic acid plus sodium pyrophosphate 0.1 M. The precipitates were filtered through nitrocellulose membranes, washed with 2% trichloroacetic acid, dried and counted in a PPO/POPOP/toluene scintillation mixture.
All the compounds were dissolved in dimethyl#sulphoxide (DMSO). The test samples were prepared in the presence of the same final concentration of DMSO. IC50 is the concentration required to inhibit the activity of the IT of the recombinant HIV-1 by 50%.

The subject of series [3] is PBMC. The experiment in a line: cytotoxicity on PBMC. The series is classed as cell-based. To be noted: Table 4, 7200 min. As for the experimental part:
as §1

A short description of series [4]: cytotoxicity on PBMC. The format is cell-based. To be noted: human; Table 4; line HIV-1 IIIB/PBMC. On the procedure:
as §1

Series [5] concerns the target T1, endogenous IT of isolated virion (Human immunodeficiency virus type 1 group M subtype B, UniProt P03367).
T1 construct: endogenous in cells; host or cells: isolated HIV-1 virions
Description: inhibition of the endogenous IT on the isolated virion. The format is biochemical. To be noted: for IT activity in cpm: Table 7, 10 μM. As for the experimental part:
After having been incubated with the various inhibitors, the viral supernatants (200 μl) were deposited in the filtering part of a VectaSpin tube (WHATMAN) fitted with an ANAPORE membrane of porosity 0.02 μm. For 10 minutes they were subjected to centrifugation, the acceleration of which reached 6000 g at the filtering membrane. The viral residuums thereby obtained (10-15 μl ) were washed 3 times under the same conditions with 500 μl of RPMI then restored to their initial volumes with RPMI containing 10% of CFS.

Chain of IT of HIV-2 (P04584 613-1171): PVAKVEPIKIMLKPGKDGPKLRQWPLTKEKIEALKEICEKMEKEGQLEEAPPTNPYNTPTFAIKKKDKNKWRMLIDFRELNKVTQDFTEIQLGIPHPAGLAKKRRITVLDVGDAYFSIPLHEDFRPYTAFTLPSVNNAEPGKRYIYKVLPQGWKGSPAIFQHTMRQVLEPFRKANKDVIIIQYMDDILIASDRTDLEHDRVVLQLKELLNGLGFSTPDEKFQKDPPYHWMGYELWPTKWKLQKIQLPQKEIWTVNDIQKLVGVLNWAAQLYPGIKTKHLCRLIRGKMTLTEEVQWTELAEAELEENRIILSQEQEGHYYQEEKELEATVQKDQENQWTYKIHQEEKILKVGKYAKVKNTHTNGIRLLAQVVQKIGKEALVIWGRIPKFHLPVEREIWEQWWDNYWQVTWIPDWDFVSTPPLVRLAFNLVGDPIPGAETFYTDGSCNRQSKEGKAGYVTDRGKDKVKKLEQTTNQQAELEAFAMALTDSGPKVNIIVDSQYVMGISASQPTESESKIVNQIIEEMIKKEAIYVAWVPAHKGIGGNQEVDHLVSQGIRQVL

As to `CCc1c(C)[nH]c(=O)c([N+](=O)[O-])c1Sc1cc(C)cc(C)c1` [Compound 7c, 5-ethyl-6-methyl-3-nitro-4-(3', 5'-dimethylphenyl)thio-pyridin-2(1H)-one], the CC50 at 120 h in series [1] and in series [4] was more than 10 µM each time. Also, the “effect on activity of the IT of HIV-2” value in series [2] is given as “not affected”. Also, the CC50 in series [3] (line HIV-1 6 type D/PBMC), in series [3] (line HIV-1 4200 type E/PBMC) and in series [3] (line HIV-2 D194/PBMC) was more than 10 µM each time. In addition, the “IT activity in cpm” value in series [5] (first (unheaded) value column, isolated virion control 813) amounted to 32 cpm; in series [5] (second (unheaded) value column, isolated virion control 809), 852 cpm. Further, the “penetration of envelope and capsid and blocking of IT” value in series [5] (isolated virions incubated 3 hours) was “appeared to penetrate the envelope and the viral capsid to fix itself onto the IT and to block its activity”.
